Among the test systems are UACC-257 melanoma; M14 melanoma; NCI-H522 lung; A549 NSCLC; MALME-3M melanoma; HOP-92 NSCLC; KM12 colon; PC-3 prostate; SK-MEL-28 melanoma; UACC-62 melanoma.
Test in all cases: DTP human tumour cell line panel, 48 h

The source of these data is PubChem BioAssay (NCI).

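Five compound concentrations were applied to cells in 96-well plates for 48 hours; endpoints were derived by simple linear interpolation of the resulting dose-response curve. GI50 is the concentration that inhibits growth by half. The concentration for full growth arrest is given as TGI.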

`CC[C@@H](C(=O)[C@@H](C)[C@@H](O)[C@H](C)[C@@H]1O[C@@H]([C@@H](CC)C(=O)O)CC[C@@H]1C)[C@H]1O[C@]2(C=C[C@@H](O)[C@]3(CC[C@@](C)([C@H]4CC[C@](O)(CC)[C@H](C)O4)O3)O2)[C@H](C)C[C@@H]1C`: the GI50 in the assay with UACC-257 melanoma is 461 nM; in the assay with M14 melanoma, 1390 nM; in the assay on NCI-H522 lung, 46.9 nM; in the assay on A549 NSCLC, 421 nM; with MALME-3M melanoma, 416 nM; with HOP-92 NSCLC it was 266 nM. Besides, the GI50 with KM12 colon was 1180 nM; with PC-3 prostate, 84 nM; with SK-MEL-28 melanoma it was 1140 nM; with UACC-62 melanoma, 1040 nM. In addition, the concentration for total growth inhibition (TGI) with UACC-257 melanoma turned out to be 6790 nM; in the assay on M14 melanoma it was 3050 nM; in the assay on NCI-H522 lung, 470 nM; with A549 NSCLC, 14100 nM; with MALME-3M melanoma, 1810 nM; in the assay with HOP-92 NSCLC it was 5100 nM. Also, the TGI in the assay with KM12 colon is 15700 nM; in the assay on PC-3 prostate, 32600 nM; in the assay on SK-MEL-28 melanoma it was 2380 nM; with UACC-62 melanoma, 2330 nM.

A word on the GI50: it is the concentration giving 50% growth inhibition. As a reminder, the TGI is the concentration giving total growth inhibition. Read a low TGI as greater sensitivity of the cells.
